One assay has as its system HIV-1. Nature of the assay: Anti HIV-1 activity (HIV-1 P24 antigen in cell cultures). It counts as cell-based. The note with it: 4 days after addition of the reagents. The method, then: Test Procedure of Anti HIV-1 Activity
8 reagent solutions of different diluted concentrations and positive control solutions are added into cell cultures in 96 well plate respectively. The sample of each diluted solutions is made duplicately and a control cell sample is also is set up. 100 μl of cell sample at a concentration of 2×10^5cells/ml is inoculated into the wells containing reagent in the plate. The cells samples are cultured in a saturated humidity culture chamber (at a 5% CO2 atmosphere) at 37° C. The pathological changes of cells are observed daily.

Another assay concerns HBV. Nature of the assay: Anti-HBV activity (HBV DNA in cell lysate, spot hybridization). It counts as cell-based. Conditions: HBV DNA content of the cells, reagent solution changed every 4 days. The method, then:
Test Procedure for Anti-HBV Activity
Using cell culture method, the preparation of the cells to be tested (100,000 cell's/mL) is inoculated into cell culture plate in 100 μl each well and the cells are cultured 24 h at 37° C. in 5% CO2. Tests are carried out when the cells grow into a monolayer. The target compounds as well as the controls are prepared into a series of solutions of appropriate concentrations using the culture medium and are added into 96 well culture plate respectively in 4 wells per one concentration. Then the reagent solution in each well is changed into the fresh reagent solution with the same concentration every 4 days. A cell control without reagent treatment is simultaneously is set up. The observation index is based upon the pathological changes of the cells by observing the degrees of the pathological changes of the cells under microscope every 8 days. […] Cell control without drug treatment is simultaneously is set up. The reagent solution or control medium in each well is changed into the fresh reagent solution or fresh medium respectively every 4 days. After cytolysis of the cells, HBV DNA is extracted from the cell lysis solution according to the molecular cloning technical procedure. The spots of different samples are hybridized and the A values of different hybridized spots are measured using autoradiograghic technique. The HBV DNA contents in the cell control as well as in the drug treated samples are calculated using the regression equations obtained from the standard curves to obtain half effective concentration values, the results are shown in Table 1.

Take `CCN(CCNC1=C2CC(C)CC(OC)C(O)C(C)C=C(C)C(OC(N)=O)C(OC)C=CC=C(C)C(=O)NC(=CC1=O)C2=O)c1cccc(C)c1` (stereo not shown) [GM-W30]: the “Activity of HIV inhibition IC50” value in the assay on HIV-1 was 10.89 µg/mL. Also, in the assay with HBV, the “Activity of HBV inhibition IC50” value was 5.6 µg/mL. The matching figures for `COC1C=CC=C(C)C(=O)NC2=CC(=O)C(NCCN3CCOCC3)=C(CC(C)CC(OC)C(O)C(C)C=C(C)C1OC(N)=O)C2=O` (stereo not shown) [GM-APML, 17-(2′-(1″-oxa-4″-azacyclohexyl-1″-)ethylamino)-17-demethoxy geldanamycin]: below 0.01 µg/mL and 0.064 µg/mL. For the compound `COC1C=CC=C(C)C(=O)NC2=CC(=O)C(NN3CCN(C)CC3)=C(CC(C)CC(OC)C(O)C(C)C=C(C)C1OC(N)=O)C2=O` (stereo not shown) [GM-W35], in the assay on HIV-1, the “Activity of HIV inhibition IC50” value was 3.48 µg/mL. The “Activity of HBV inhibition IC50” value with HBV turned out to be 4.36 µg/mL. The matching figures for `COC1C=CC=C(C)C(=O)NC2=CC(=O)C(NC3CCNCC3)=C(CC(C)CC(OC)C(O)C(C)C=C(C)C1OC(N)=O)C2=O` (stereo not shown) [GM-W37]: 1.43 µg/mL and 1.32 µg/mL. `CO[C@H]1/C=C/C=C(\C)C(=O)NC2=CC(=O)C(NCCc3ccc(S(N)(=O)=O)cc3)=C(C[C@H](C)C[C@H](OC)[C@H](O)[C@@H](C)/C=C(\C)[C@H]1OC(N)=O)C2=O` [GM-208, 17-(4″-aminosulfonyl)phenylethylamino-17-demethoxy geldanamycin]: the “Activity of HIV inhibition IC50” value with HIV-1 was above 0.82 µg/mL. As for `COC1C=CC=C(C)C(=O)NC2=C(NCC3CCCO3)C(=O)C(NCC3CCCO3)=C(CC(C)CC(OC)C(O)C(C)C=C(C)C1OC(N)=O)C2=O` (stereo not shown) [THFM-GM2], in the assay with HIV-1, the “Activity of HIV inhibition IC50” value came to 0.24 µg/mL. The “Activity of HBV inhibition IC50” value in the assay on HBV turned out to be 0.064 µg/mL. For `CCC(CO)(CO)NC1=C2CC(C)CC(OC)C(O)C(C)C=C(C)C(OC(N)=O)C(OC)C=CC=C(C)C(=O)NC(=CC1=O)C2=O` (stereo not shown) [GM-W63] the same measures were 1.37 µg/mL and 3.2 µg/mL. For `COC1C=CC=C(C)C(=O)NC2=CC(=O)C(NNC(=O)c3ccco3)=C(CC(C)CC(OC)C(O)C(C)C=C(C)C1OC(N)=O)C2=O` (stereo not shown) [GM-W83] the same measures were 3.56 µg/mL and 3.2 µg/mL.

With “17-diethyloxy phosphoryl methylene amino-17-demethoxy geldanamycin [GM-GP]”, in the assay with HIV-1, the “Activity of HIV inhibition IC50” value was determined as 1.36 µg/mL. In addition, in the assay with HBV, the “Activity of HBV inhibition IC50” value was found to be 3.24 µg/mL. The matching figures for `COC1C=CC=C(C)C(=O)NC2=CC(=O)C(NCCCN3CCCC3)=C(CC(C)CC(OC)C(O)C(C)C=C(C)C1OC(N)=O)C2=O` (stereo not shown) [GM-W76]: 0.24 µg/mL and 0.01 µg/mL.

Regarding `COC1C=CC=C(C)C(=O)NC2=CC(=O)C(NCCC3CCN(Cc4ccccc4)CC3)=C(CC(C)CC(OC)C(O)C(C)C=C(C)C1OC(N)=O)C2=O` (stereo not shown) [GM-W27], the “Activity of HIV inhibition IC50” value in the assay with HIV-1 came to 13.81 µg/mL. The “Activity of HBV inhibition IC50” value in the assay on HBV is 3.9 µg/mL. For `COC1C=CC=C(C)C(=O)NC2=CC(=O)C(NCC3CCC4CC3C4(C)C)=C(CC(C)CC(OC)C(O)C(C)C=C(C)C1OC(N)=O)C2=O` (stereo not shown) [GM-MTA, 17-(myrtanylamino)-17-demethoxy geldanamycin] the same measures were 0.04 µg/mL and 0.32 µg/mL. For `COC1C=CC=C(C)C(=O)NC2=CC(=O)C(Nn3cnnc3)=C(CC(C)CC(OC)C(O)C(C)C=C(C)C1OC(N)=O)C2=O` (stereo not shown) [GM-W77] the same measures were 8.97 µg/mL and 7.36 µg/mL. The matching figures for `COC1C=CC=C(C)C(=O)NC2=CC(=O)C(NCC3CCCCN3)=C(CC(C)CC(OC)C(O)C(C)C=C(C)C1OC(N)=O)C2=O` (stereo not shown) [GM-W22]: 1.37 µg/mL and 3.2 µg/mL.

Turning to `CCN1CCCC1CNC1=C2C[C@H](C)C[C@H](OC)[C@H](O)[C@@H](C)/C=C(\C)[C@@H](OC(N)=O)[C@@H](OC)/C=C/C=C(\C)C(=O)NC(=CC1=O)C2=O` (stereo partly shown) [GM-228, 17-(2″-(N-ethylpyrrolidinyl)-methylamino)-17-demethoxy geldanamycin], the “Activity of HIV inhibition IC50” value in the assay with HIV-1 stood at 0.009 µg/mL. In the assay on HBV, the “Activity of HBV inhibition IC50, μg/ml” value is given as 0/01. Turning to `CO[C@H]1/C=C\C=C(/C)C(=O)NC2=CC(=O)C(NCC3CCCO3)=C(C[C@@H](C)C[C@H](OC)[C@H](O)[C@@H](C)/C=C(\C)[C@@H]1OC(N)=O)C2=O` (stereo partly shown) [THFM-GM, 17-tetrahydrofurfurylamino-17-demethoxy geldanamycin], the “Activity of HIV inhibition IC50” value in the assay on HIV-1 came to 0.14 µg/mL. Besides, in the assay with HBV, the “Activity of HBV inhibition IC50” value came out at 0.01 µg/mL.

Consider `COC1C=CC=C(C)C(=O)NC2=CC(=O)C(NCc3cccnc3)=C(CC(C)CC(OC)C(O)C(C)C=C(C)C1OC(N)=O)C2=O` (stereo not shown) [GM-W20], for which the “Activity of HIV inhibition IC50” value in the assay on HIV-1 was found to be 26.42 µg/mL. The “Activity of HBV inhibition IC50” value with HBV was 6.89 µg/mL. For `COC1C=CC=C(C)C(=O)NC2=CC(=O)C(NCC3(O)CCCCC3)=C(CC(C)CC(OC)C(O)C(C)C=C(C)C1OC(N)=O)C2=O` (stereo not shown) [GM-W65] the same measures were 6.81 µg/mL and 3.1 µg/mL. For `COC1C=CC=C(C)C(=O)NC2=CC(=O)C(NC3CCN(Cc4ccccc4)CC3)=C(CC(C)CC(OC)C(O)C(C)C=C(C)C1OC(N)=O)C2=O` (stereo not shown) [GM-ABPD, 17-(4′-benzyl-4′-azacyclohexylamino)-17-demethoxy geldanamycin] the same measures were below 0.03 µg/mL and 0.32 µg/mL.

For the compound `COC1C=CC=C(C)C(=O)NC2=CC(=O)C(NCc3ccc(C)o3)=C(CC(C)CC(OC)C(O)C(C)C=C(C)C1OC(N)=O)C2=O` (stereo not shown) [GM-W88], the “Activity of HIV inhibition IC50” value in the assay on HIV-1 stood at 0.24 µg/mL. For the same compound, in the assay on HBV, the “Activity of HBV inhibition IC50” value was found to be 0.08 µg/mL.

For the compound `COC1C=CC=C(C)C(=O)NC2=CC(=O)C(NCCNC(=O)c3cccnc3)=C(CC(C)CC(OC)C(O)C(C)C=C(C)C1OC(N)=O)C2=O` (stereo not shown) [GM-418, 17-(2′-nicotinamidoethylamino)-17-demethoxy geldanamycin], the “Activity of HIV inhibition IC50” value in the assay with HIV-1 was found to be 0.37 µg/mL. In the assay with HBV, the “Activity of HBV inhibition IC50” value is 0.08 µg/mL. For `CCCCCC(NC1=C2CC(C)CC(OC)C(O)C(C)C=C(C)C(OC(N)=O)C(OC)C=CC=C(C)C(=O)NC(=CC1=O)C2=O)P(=O)(O)O` (stereo not shown) [GM-W62] the same measures were 1.76 µg/mL and 0.89 µg/mL. The matching figures for `COC1C=CC=C(C)C(=O)NC2=CC(=O)C(NCCNCCO)=C(CC(C)CC(OC)C(O)C(C)C=C(C)C1OC(N)=O)C2=O` (stereo not shown) [GM-W26]: 0.21 µg/mL and 0.64 µg/mL. The matching figures for `COC1C=CC=C(C)C(=O)NC2=CC(=O)C(NN3CCOCC3)=C(CC(C)CC(OC)C(O)C(C)C=C(C)C1OC(N)=O)C2=O` (stereo not shown) [GM-W68]: 10.46 µg/mL and 4.6 µg/mL. With `COC1C=CC=C(C)C(=O)NC2=CC(=O)C(NCC(C)(C)CO)=C(CC(C)CC(OC)C(O)C(C)C=C(C)C1OC(N)=O)C2=O` (stereo not shown) [GM-W16], in the assay with HIV-1, the “Activity of HIV inhibition IC50” value turned out to be 0.43 µg/mL. In addition, in the assay with HBV, the “Activity of HBV inhibition IC50” value stood at 0.064 µg/mL. The matching figures for `COC1C=CC=C(C)C(=O)NC2=CC(=O)C(NCCOCCO)=C(CC(C)CC(OC)C(O)C(C)C=C(C)C1OC(N)=O)C2=O` (stereo not shown) [GM-W25]: 0.43 µg/mL and 0.32 µg/mL. Regarding `CCN1CCCC1CNC1=C2CC(C)CC(OC)C(O)C(C)C=C(C)C(OC(N)=O)C(OC)C=CC=C(C)C(=O)NC(=CC1=O)C2=O` (stereo not shown) [GM-210R, 17-(2″R-2″-(N-ethylpyrrolidinyl)-methylamino)-17-demethoxy geldanamycin], the “Activity of HIV inhibition IC50” value in the assay on HIV-1 came out at 0.01 µg/mL. For the same compound, in the assay with HBV, the “Activity of HBV inhibition IC50” value came to 0.064 µg/mL. The matching figures for `COC1C=CC=C(C)C(=O)NC2=CC(=O)C(NCCN3CCCCC3)=C(CC(C)CC(OC)C(O)C(C)C=C(C)C1OC(N)=O)C2=O` (stereo not shown) [GM-AEPD, 17-(2′-(1″-azacyclohexyl-1″-)ethylamino)-17-demethoxy geldanamycin]: below 0.01 µg/mL and 0.08 µg/mL. With “17-(trans-4′-hydroxyl cyclohexylamino)-17-demethoxy geldanamycin [GM-223]”, the “Activity of HIV inhibition IC50” value with HIV-1 was determined as 0.10 µg/mL. On the same count and under the same terms, the result for `CO[C@H]1/C=C/C=C(\C)C(=O)NC2=CC(=O)C(NCCc3cccs3)=C(C[C@H](C)C[C@H](OC)[C@H](O)[C@@H](C)/C=C(\C)[C@H]1OC(N)=O)C2=O` [GM-221, 17-(2′-thienylethylamino)-17-demethoxy geldanamycin] reads 0.06 µg/mL; that for `COC1C=CC=C(C)C(=O)NC2=CC(=O)C(NCc3ccc4c(c3)OCO4)=C(CC(C)CC(OC)C(O)C(C)C=C(C)C1OC(N)=O)C2=O` (stereo not shown) [GM-217, 17-(3′,4′-(Methylenedioxy)benzylamino)-17-demethoxygeldanamycin], 0.16 µg/mL.
